Biological target: T1, CCR9 (Homo sapiens, UniProt P51686)
T1 construct: CCR9-expressing cells (such as a T cell line MOLT-4 cells); host or cells: MOLT-4
T1 sequence (P51686 1-369): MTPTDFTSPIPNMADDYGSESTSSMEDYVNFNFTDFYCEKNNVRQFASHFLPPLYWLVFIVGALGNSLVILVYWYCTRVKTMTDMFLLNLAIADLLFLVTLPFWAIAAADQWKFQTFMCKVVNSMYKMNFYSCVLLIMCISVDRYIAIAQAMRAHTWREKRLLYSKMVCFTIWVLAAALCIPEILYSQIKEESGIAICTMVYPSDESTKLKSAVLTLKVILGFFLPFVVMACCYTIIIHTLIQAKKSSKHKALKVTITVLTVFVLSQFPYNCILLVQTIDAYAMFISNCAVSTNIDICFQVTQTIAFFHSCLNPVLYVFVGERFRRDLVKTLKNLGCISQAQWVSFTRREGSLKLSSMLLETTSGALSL
Experiment: chemotaxis (conventional migration) assay and/or calcium mobilization (calcium flux) assay, TECK-stimulated MOLT-4 cells
Assay type: cell-based
Settings: TECK-induced migration and/or calcium signal, read-out: activity (IC50) in either or both of the chemotaxis assay and calcium mobilization assays
Description: MOLT-4 cells were obtained from the American Type Culture Collection (Manassas, Va.) and cultured in RPMI tissue culture medium supplemented with 10% fetal calf serum (FCS) in a humidified 5% CO2 incubator at 37° C. Recombinant human chemokine protein TECK was obtained from R&D Systems (Minneapolis, Minn.). ChemoTX® chemotaxis microchambers were purchased from Neuro Probe (Gaithersburg, Md.). CyQUANT® cell proliferation kits were purchased from Molecular Probes (Eugene, Oreg.). Calcium indicator dye Fluo-4 AM was purchased from Molecular Devices (Mountain View, Calif.).
Conventional migration assay was used to determine the efficacy of potential receptor antagonists in blocking migration mediated through CCR9. This assay was routinely performed using the ChemoTX® microchamber system with a 5-μm pore-sized polycarbonate membrane. To begin such an assay, MOLT-4 cells were harvested by centrifugation of cell suspension at 1000 PRM on a GS-6R Beckman centrifuge. The cell pellet was resuspended in chemotaxis buffer (HBSS with 0.1% BSA) at 5×10^6 cells/mL. Test compounds at desired concentrations were prepared from 10 mM stock solutions by serial dilutions in chemotaxis buffer. An equal volume of cells and compounds were mixed and incubated at room temperature for 15 minutes. Afterwards, 20 μL of the mixture was transferred onto the porous membrane of a migration microchamber, with 29 μL of 50 nM chemokine TECK protein placed at the lower chamber. Following a 150-minute incubation at 37° C., during which cells migrated against the chemokine gradient, the assay was terminated by removing the cell drops from atop the filter. To quantify cells migrated across the membrane, 5 μL of 7X CyQUANT® solution was added to each well in the lower chamber, and the fluorescence signal measured on a Spectrafluor Plus fluorescence plate reader (TECAN, Durham, N.C.). The degree of inhibition was determined by comparing migration signals between compound-treated and untreated cells. IC50 calculation was further performed by non-linear squares regression analysis using Graphpad Prism (Graphpad Software, San Diego, Calif.).
Calcium flux assay measures an increase in intracellular calcium following ligand-induced receptor activation. In the screen of CCR9 antagonists, it was used as a secondary assay carried out on a FLIPR® machine (Molecular Devices, Mountain View, Calif.). To begin an assay, MOLT-4 cells were harvested by centrifugation of cell suspension, and resuspended to 1.5×10^6 cells/mL in HBSS (with 1% fetal calf serum). Cells were then labeled with a calcium indicator dye Fluo-4 AM for 45 minutes at 37° C. with gentle shaking. Following incubation, cells were pelletted, washed once with HBSS and resuspended in the same buffer at a density of 1.6×10^6 cells/mL. One hundred microliters of labeled cells were mixed with […] of test compound at the appropriate concentrations on an assay plate. Chemokine protein TECK was added at a final concentration of 25 nM to activate the receptor. The degree of inhibition was determined by comparing calcium signals between compound-treated and untreated cells. IC50 calculations were further performed by non-linear squares regression analysis using Graphpad Prism (Graphpad Software, San Diego, Calif.).
In the table below, structures and activity are provided for representative compounds described herein. Activity is provided as follows for either or both of the chemotaxis assay and/or calcium mobilization assays, described above: + 1000 nM<IC50<10000 nM; ++, 100 nM<IC50<1000 nM; and +++, IC50<100 nM.

CC(C)(C)c1ccc(S(=O)(=O)Nc2ccc(Cl)cc2C(=O)c2ccccc2)cc1 and CC(C)(C)c1ccc(S(=O)(=O)Nc2cc(Cl)ccc2C(=O)c2ccccc2)cc1 cannot be ordered by IC50: less than 100 nM for the first, less than 100 nM for the second.

Compared with COc1ccc(S(=O)(=O)Nc2ccc(Br)cc2C(=O)c2ccccc2)cc1, COc1ccc(S(=O)(=O)Nc2cc(Br)ccc2C(=O)c2ccccc2)cc1 is higher in IC50: less than 100 nM for the first, 100 to 1000 nM for the second. The first is the more potent here.

COc1ccc(S(=O)(=O)Nc2ccc(F)cc2C(=O)c2ccccc2)cc1 and COc1ccc(S(=O)(=O)Nc2ccc(Cl)cc2C(=O)c2ccccc2)cc1 [drawing 93] cannot be ordered by IC50: less than 100 nM for the first, less than 100 nM for the second.

CS(=O)(=O)c1ccc(S(=O)(=O)Nc2ccc(Cl)cc2C(=O)c2ccccc2)cc1 and O=C(c1ccccc1)c1cc(Cl)ccc1NS(=O)(=O)c1ccc(I)cc1 cannot be ordered by IC50: less than 100 nM for the first, less than 100 nM for the second.

First: O=C(c1ccccc1)c1cc(Cl)ccc1NS(=O)(=O)c1ccc(-c2cnco2)cc1
Second: O=C(c1ccccc1)c1cc(Cl)ccc1NS(=O)(=O)c1ccc(-c2cccs2)cc1
The IC50 of the first is lower: less than 100 nM for the first, 100 to 1000 nM for the second. The first is the more potent here.

First: C=Cc1ccc(S(=O)(=O)Nc2ccc(Cl)cc2C(=O)c2ccccc2)cc1
Second: O=C(c1ccccc1)c1cc(Cl)ccc1NS(=O)(=O)c1ccc(Br)cc1
The IC50 of the first is lower: less than 100 nM for the first, 100 to 1000 nM for the second.

CCc1ccc(S(=O)(=O)Nc2ccc(Br)cc2C(=O)c2ccccc2)cc1 and CCc1ccc(S(=O)(=O)Nc2ccc(Cl)cc2C(=O)c2ccccc2)cc1 cannot be ordered by IC50: less than 100 nM for the first, less than 100 nM for the second.

O=C(c1ccccc1)c1cc(Cl)ccc1NS(=O)(=O)c1ccc(C(F)(F)F)cc1 and O=C(c1ccccc1)c1cc(Cl)ccc1NS(=O)(=O)c1ccc(OC(F)(F)F)cc1 cannot be ordered by IC50: less than 100 nM for the first, less than 100 nM for the second.

O=C(c1ccccc1)c1cc(Br)ccc1NS(=O)(=O)c1ccc(-c2cocn2)cc1 and CC(=O)c1ccc(S(=O)(=O)Nc2ccc(Br)cc2C(=O)c2ccccc2)cc1 cannot be ordered by IC50: less than 100 nM for the first, less than 100 nM for the second.

First: CC(C)Oc1ccc(S(=O)(=O)Nc2ccc(Cl)cc2C(=O)c2ccccc2)cc1
Second: CC(C)c1ccc(S(=O)(=O)Nc2ccc(Cl)cc2C(=O)c2ccccc2)cc1
The IC50 of the first is lower: less than 100 nM for the first, 100 to 1000 nM for the second.

First: COC(=O)CCc1ccc(S(=O)(=O)Nc2ccc(Cl)cc2C(=O)c2ccccc2)cc1
Second: CCCCc1ccc(S(=O)(=O)Nc2ccc(Cl)cc2C(=O)c2ccccc2)cc1
The IC50 of the first is lower: less than 100 nM for the first, 100 to 1000 nM for the second.

CC(C)(C)c1ccc(S(=O)(=O)Nc2ccc(Br)cc2C(=O)c2ccccc2)cc1 and CCC(C)(C)c1ccc(S(=O)(=O)Nc2ccc(Cl)cc2C(=O)c2ccccc2)cc1 cannot be ordered by IC50: less than 100 nM for the first, less than 100 nM for the second.

First: CC(=O)c1ccc(S(=O)(=O)Nc2ccc(Cl)cc2C(=O)c2ccccc2)cc1
Second: CC(=O)Nc1ccc(S(=O)(=O)Nc2ccc(Cl)cc2C(=O)c2ccccc2)cc1
The IC50 of the first is lower: less than 100 nM for the first, 100 to 1000 nM for the second. The first is the more potent here.

O=C(c1ccccc1)c1cc(Cl)ccc1NS(=O)(=O)c1ccc(Nc2cccnc2)cc1 and O=C(c1ccccc1)c1cc(Cl)ccc1NS(=O)(=O)c1ccc(-n2cccn2)cc1 fall in the same range of IC50: 100 to 1000 nM for the first, 100 to 1000 nM for the second.

CC(C)(C)c1ccc(S(=O)(=O)Nc2ccc(Cl)cc2C(=O)c2ccc(F)cc2)cc1 and O=C(c1ccccc1)c1cc(Cl)ccc1NS(=O)(=O)c1ccc(F)cc1 fall in the same range of IC50: 100 to 1000 nM for the first, 100 to 1000 nM for the second.

O=C(c1ccccc1)c1cc(Cl)ccc1NS(=O)(=O)c1cccc(F)c1 and N#Cc1cccc(S(=O)(=O)Nc2ccc(Cl)cc2C(=O)c2ccccc2)c1 fall in the same range of IC50: 100 to 1000 nM for the first, 100 to 1000 nM for the second.

O=C(c1ccccc1)c1cc(Cl)ccc1NS(=O)(=O)c1ccc(C#Cc2ccccc2)cc1 and N#Cc1ccc(S(=O)(=O)Nc2ccc(Cl)cc2C(=O)c2ccccc2)cc1 fall in the same range of IC50: 100 to 1000 nM for the first, 100 to 1000 nM for the second.

Compared with O=C(c1ccccc1)c1cc(Cl)ccc1NS(=O)(=O)c1ccc2c(c1)CCO2, O=C(c1ccccc1)c1cc(Cl)ccc1NS(=O)(=O)c1ccc(Cl)c(Cl)c1 is higher in IC50: 100 to 1000 nM for the first, 1000 to 10000 nM for the second.

First: CC(=O)Nc1ccc(S(=O)(=O)Nc2ccc(Cl)cc2C(=O)c2ccccc2)cc1Cl
Second: COc1cccc(S(=O)(=O)Nc2ccc(Cl)cc2C(=O)c2ccccc2)c1
The IC50 of the first is lower: 100 to 1000 nM for the first, 1000 to 10000 nM for the second.

CCCCOc1ccc(S(=O)(=O)Nc2ccc(Cl)cc2C(=O)c2ccccc2)cc1 and COc1ccc(S(=O)(=O)Nc2ccc(OC)cc2C(=O)c2ccccc2)cc1 fall in the same range of IC50: 1000 to 10000 nM for the first, 1000 to 10000 nM for the second.

O=C(c1ccccc1)c1cc(Cl)ccc1NS(=O)(=O)c1ccccc1F and O=C(c1ccccc1)c1cc(Cl)ccc1NS(=O)(=O)c1ccc(Cl)cc1Cl fall in the same range of IC50: 1000 to 10000 nM for the first, 1000 to 10000 nM for the second.

COc1ccc(-c2ccc(S(=O)(=O)Nc3ccc(Cl)cc3C(=O)c3ccccc3)cc2)cc1 and COc1ccc(S(=O)(=O)Nc2ccc(Cl)cc2C(=O)c2ccccc2F)cc1 fall in the same range of IC50: 1000 to 10000 nM for the first, 1000 to 10000 nM for the second.

COc1ccc(OC)c(S(=O)(=O)Nc2ccc(Cl)cc2C(=O)c2ccccc2)c1 and O=C(c1ccccc1)c1cc(Cl)ccc1NS(=O)(=O)c1cccc(C(F)(F)F)c1 fall in the same range of IC50: 1000 to 10000 nM for the first, 1000 to 10000 nM for the second.

Test system: MDR1α-knockout mice
Experiment: in vivo efficacy study in MDR1α-knockout mice (spontaneous colitis, delay of disease onset)
Settings: female MDR1α-knockout mice, 50 mg/kg twice a day intraperitoneal, 14 consecutive days
Source text: The MDR1α-knockout mice, which lack the P-glycoprotein gene, spontaneously develop colitis under specific pathogen-free condition. The pathology in these animals has been characterized as Th1-type T cell-mediated inflammation similar to ulcerative colitis in humans. Disease normally begins to develop at around 8-10 weeks after birth. But the ages at which disease emerges and the ultimate penetrance level often vary considerably among different animal facilities.
In a study using the MDR1α-knockout mice, the known compound shown below was tested for its ability to delay disease onset during a short treatment regimen.
This compound is structurally similar to the claimed modulators (I) of the present invention. Female mice (n=15) were dosed with 50 mg/kg twice a day by intraperitonial injection, starting at age 13 weeks for 14 consecutive days. The study was terminated when the mice reached age 17 weeks at which point the disease penetrance level measured by diarrhea incidence reached 55%. […] This protection extended one to two weeks after treatment stopped (FIG. 1).

With COc1ccc(S(=O)(=O)Nc2ccc(Cl)cc2C(=O)c2ccccc2)cc1 [drawing 79] the “duration of protection after treatment stopped” value was “one to two”.

Same assay, conditions: female MDR1α-knockout mice, 50 mg/kg twice a day intraperitoneal, 14 consecutive days from age 13 weeks

In the case of COc1ccc(S(=O)(=O)Nc2ccc(Cl)cc2C(=O)c2ccccc2)cc1 [drawing 79], the tolerability is reported as “well tolerated”.

Same assay, conditions: female MDR1α-knockout mice, 50 mg/kg twice a day intraperitoneal, 14 consecutive days from age 13 weeks; compared with vehicle

For COc1ccc(S(=O)(=O)Nc2ccc(Cl)cc2C(=O)c2ccccc2)cc1 [drawing 79], the “onset of IBD symptoms (diarrhea incidence)” value was “significant delay in the onset of IBD symptoms”.
